Assay results as given in ChEMBL document CHEMBL1147308, “Novel secoiridoid lactones from Jasminum multiflorum” (1989).
Calls of active or inactive are those of the source. The rule behind the calls is not given here.

Legend:
[1] = test system: Heart; experiment: Coronary dilatory activity in perfused guinea pig heart assessed as minimum effective concentration; format: functional, Cavia porcellus
[2] = test system: Heart; experiment: Cardiotropic activity in perfused guinea pig heart assessed as positive ionotropy; format: functional, tissue-based; conditions: Cavia porcellus
[3] = test system: Heart; experiment: Cardiotropic activity in perfused guinea pig heart assessed as positive chronotropy; format: functional, tissue-based; conditions: Cavia porcellus
[4] = test system: Heart; experiment: Cardiotropic activity in perfused guinea pig heart assessed as minimum effective concentration; format: functional, Cavia porcellus
[5] = test system: Heart; experiment: Cardiotropic activity in perfused guinea pig heart assessed as negative ionotropy; format: functional, tissue-based; conditions: Cavia porcellus
[6] = test system: Heart; experiment: Cardiotropic activity in perfused guinea pig heart assessed as negative chronotropy; format: functional, tissue-based; conditions: Cavia porcellus

In the case of `CC(C)NCC(O)c1ccc(O)c(O)c1` (configuration not stated) [ISOPROTERENOL], the MEC [1] is reported as 4.7 ×10⁻⁷ M, the Activity [2] is reported as “Active” and the Activity [3] is reported as “Active”. For the same compound, the MEC [4] was 4.7 ×10⁻⁸ M.
In the case of `COC(=O)C1=CO[C@@H](O)[C@H]2[C@@H]1CC(=O)OC[C@H]2OCCc1ccc(O)c(O)c1` [JASMOLACTONE A], the Activity [5] is reported as “Active”, the MEC [1] is reported as 1.3 ×10⁻⁵ M and the MEC [4] is reported as 2.5 ×10⁻⁵ M. For the same compound, the Activity [6] was “inactive”.
For `O=C1C[C@@H]2C(C(=O)OCCc3ccc(O)c(O)c3)=CO[C@@H](O)[C@@H]2[C@H](OCCc2ccc(O)c(O)c2)CO1` [JASMOLACTONE B], the Activity [5] was “Active”, the MEC [1] was 4.8 ×10⁻⁶ M and the MEC [4] was 9.7 ×10⁻⁶ M. The Activity [6] was “inactive”.
